# Assay results reported in patent US11452725B2, “Chiral diaryl macrocycles and uses thereof” (TURNING POINT THERAPEUTICS, INC., priority 2015, dated 2022).
# Tests used:
# TYK2 = target: T1, TYK2 (Homo sapiens, UniProt P29597); test: Biochemical kinase assay (Reaction Biology); conditions: 10 μM ATP
# T1 construct: purchased Reaction Biology Corporation (contract assay)
# Experimental: (§3) Specific kinase/substrate pairs along with required cofactors were prepared in reaction buffer; 20 mM Hepes pH 7.5, 10 mM MgCl2, 1 mM EGTA, 0.02% Brij35, 0.02 mg/ml BSA, 0.1 mM Na3VO4, 2 mM DTT, 1% DMSO (for specific details of individual kinase reaction components see Supplementary Table 2). Compounds were delivered into the reaction, followed ˜20 minutes later by addition of a mixture of ATP (Sigma, St. Louis Mo.) and ^33P ATP (Perkin Elmer, Waltham Mass.) to a final concentration of 10 μM. Reactions were carried out at room temperature for 120 min, followed by spotting of the reactions onto P81 ion exchange filter paper (Whatman Inc., Piscataway, N.J.). […] IC50 values and curve fits were obtained using Prism (GraphPad Software).
# FAK = FAK (Homo sapiens, UniProt Q05397); test: KINOMEscan kinase binding assay (DiscoveRx)
# Experimental: (§1) Kinase binding assays were performed at DiscoveRx using the general KINOMEscan Kd Protocol (Fabian, M. A. et al., “A small molecule-kinase interaction map for clinical kinase inhibitors,” Nat. Biotechnol. 2005, 23(3):329-36). For most assays, kinase-tagged T7 phage strains were prepared in an E. coli host derived from the BL21 strain. E. coli were grown to log-phase and infected with T7 phage and incubated with shaking at 32° C. until lysis. The lysates were centrifuged and filtered to remove cell debris. The remaining kinases were produced in HEK-293 cells and subsequently tagged with DNA for qPCR detection. […] The liganded beads were blocked with excess biotin and washed with blocking buffer (SeaBlock (Pierce), 1% BSA, 0.05% Tween 20, 1 mM DTT) to remove unbound ligand and to reduce nonspecific binding. […] All reactions were performed in polystyrene 96-well plates in a final volume of 0.135 mL. […] The kinase concentration in the eluates was measured by qPCR.
# (§2) Binding constants (Kds) were calculated with a standard dose-response curve using the Hill equation: Response=Background+(Signal−Background)/(1+(Kd^Hill Slope/Dose^Hill Slope)) The Hill Slope was set to −1. Curves were fitted using a non-linear least square fit with the Levenberg-Marquardt algorithm.
# ARK5 = ARK5 (Homo sapiens, UniProt O60285); test: KINOMEscan kinase binding assay (DiscoveRx)
# Experimental: as §1, §2
# TNK2 = target: T2, TNK2 (Homo sapiens, UniProt Q07912); test: Biochemical kinase assay (Reaction Biology); conditions: 10 μM ATP
# T2 construct: purchased Reaction Biology Corporation (contract assay)
# Experimental: as §3
# IGFR = target: T3, IGFR (Homo sapiens, UniProt P08069); test: Biochemical kinase assay (Reaction Biology); conditions: 10 μM ATP
# T3 construct: purchased Reaction Biology Corporation (contract assay)
# Experimental: as §3
# JAK1 = target: T4, JAK1 (Homo sapiens, UniProt P23458); test: Biochemical kinase assay (Reaction Biology); conditions: 10 μM ATP
# T4 construct: purchased Reaction Biology Corporation (contract assay)
# Experimental: as §3
# FYN = target: T5, FYN (Homo sapiens, UniProt P06241); test: Biochemical kinase assay (Reaction Biology); conditions: 10 μM ATP
# T5 construct: purchased Reaction Biology Corporation
# Experimental: as §3
# SNARK = target: T6, SNARK (Homo sapiens, UniProt Q9H093); test: Biochemical kinase assay (Reaction Biology); conditions: 10 μM ATP
# T6 construct: purchased Reaction Biology Corporation
# Experimental: as §3
# JAK3 = target: T7, JAK3 (Homo sapiens, UniProt P52333); test: Biochemical kinase assay (Reaction Biology); conditions: 10 μM ATP
# T7 construct: purchased Reaction Biology Corporation (contract assay)
# Experimental: as §3
# [1] = test system: Ba/F3 TEL-TRKB (ETV6-TRKB) G639R cell line; test: Cell proliferation assay (CellTiter-Glo); assay type: cell-based; conditions: Mus musculus, BaF3; 72 hours
# [2] = test system: NIH3T3 EML4-ALK WT tumors; test: NIH3T3 EML4-ALK WT subcutaneous xenograft model; assay type: in vivo, athymic nude mice; conditions: 12 days
# STAT5 = test: Immunoblotting cellular phosphorylation assay, SET-2 cells (JAK2 V617F); assay type: cell-based; conditions: Homo sapiens, SET-2, 4 h, 4 hours treatment, read-out: STAT5 phosphorylation of SET-2 cell line IC50
# Experimental: NSCLC cell line H2228 (harboring endogenous EML4-ALK fusion gene), HCC78 cells (harboring endogenous SLC34A2-ROS1 fusion gene), Karpas-299 cells (harboring endogenous NPM-ALK fusion gene) or SET-2 (harboring endogenous JAK2V617F activating mutation) were cultured in RPMI medium, and KM12 (harboring endogenous TPM3-TRKA fusion gene) cell line was cultured in DMEM medium, both supplemented with 10% fetal bovine serum and 100 U/mL of penicillin/streptomycin. Ba/F3 and NIH3T3 cells stably expressing ALK or ROS1 (WT or mutant) were culture as mentioned above. […] Protein lysates (approximately 20 μg) was resolved on 4-12% Bolt Bis-Tris precasted gels with MES running buffer (Life Technologies), transferred to nitrocellulose membranes using Trans-Blot Turbo Transfer System (Bio-Rad) and detected with antibodies targeting phosphorylated ALK Y1604 (Cell Signaling Technology), total ALK (Cell Signaling Technology), phosphorylated ROS1 and total ROS1 (Cell Signaling Technology), phosphorylated TRK A/B (Cell Signaling Technology), total TRKA antibody (Santa Cruz Biotechnology), phosphorylated STAT3 and STAT5, total STAT3 and STAT5 (Cell Signaling Technology), phosphorylated AKT (Cell Signaling Technology), total AKT (Cell Signaling Technology), phosphorylated ERK (Cell Signaling Technology), total ERK (Cell Signaling Technology) and Tubulin (Sigma). […]
# YES = target: T8, YES (Homo sapiens, UniProt P07947); test: Biochemical kinase assay (Reaction Biology); conditions: 10 μM ATP
# T8 construct: purchased Reaction Biology Corporation
# Experimental: as §3
# T5 sequence (P06241 whole entry): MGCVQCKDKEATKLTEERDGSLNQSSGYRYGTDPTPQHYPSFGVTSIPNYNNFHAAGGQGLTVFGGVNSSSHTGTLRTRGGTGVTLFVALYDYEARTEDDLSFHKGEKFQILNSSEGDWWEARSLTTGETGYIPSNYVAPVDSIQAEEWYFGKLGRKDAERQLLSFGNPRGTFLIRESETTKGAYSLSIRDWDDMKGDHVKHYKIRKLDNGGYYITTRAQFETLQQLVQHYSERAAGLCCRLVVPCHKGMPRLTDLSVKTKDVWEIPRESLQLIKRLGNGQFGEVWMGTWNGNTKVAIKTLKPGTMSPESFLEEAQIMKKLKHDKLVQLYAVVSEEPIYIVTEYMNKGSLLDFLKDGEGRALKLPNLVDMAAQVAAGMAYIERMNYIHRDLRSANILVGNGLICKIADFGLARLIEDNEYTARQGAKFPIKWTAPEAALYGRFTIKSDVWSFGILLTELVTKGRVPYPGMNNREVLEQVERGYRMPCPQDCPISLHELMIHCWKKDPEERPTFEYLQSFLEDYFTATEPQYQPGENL
# T7 sequence (P52333 whole entry): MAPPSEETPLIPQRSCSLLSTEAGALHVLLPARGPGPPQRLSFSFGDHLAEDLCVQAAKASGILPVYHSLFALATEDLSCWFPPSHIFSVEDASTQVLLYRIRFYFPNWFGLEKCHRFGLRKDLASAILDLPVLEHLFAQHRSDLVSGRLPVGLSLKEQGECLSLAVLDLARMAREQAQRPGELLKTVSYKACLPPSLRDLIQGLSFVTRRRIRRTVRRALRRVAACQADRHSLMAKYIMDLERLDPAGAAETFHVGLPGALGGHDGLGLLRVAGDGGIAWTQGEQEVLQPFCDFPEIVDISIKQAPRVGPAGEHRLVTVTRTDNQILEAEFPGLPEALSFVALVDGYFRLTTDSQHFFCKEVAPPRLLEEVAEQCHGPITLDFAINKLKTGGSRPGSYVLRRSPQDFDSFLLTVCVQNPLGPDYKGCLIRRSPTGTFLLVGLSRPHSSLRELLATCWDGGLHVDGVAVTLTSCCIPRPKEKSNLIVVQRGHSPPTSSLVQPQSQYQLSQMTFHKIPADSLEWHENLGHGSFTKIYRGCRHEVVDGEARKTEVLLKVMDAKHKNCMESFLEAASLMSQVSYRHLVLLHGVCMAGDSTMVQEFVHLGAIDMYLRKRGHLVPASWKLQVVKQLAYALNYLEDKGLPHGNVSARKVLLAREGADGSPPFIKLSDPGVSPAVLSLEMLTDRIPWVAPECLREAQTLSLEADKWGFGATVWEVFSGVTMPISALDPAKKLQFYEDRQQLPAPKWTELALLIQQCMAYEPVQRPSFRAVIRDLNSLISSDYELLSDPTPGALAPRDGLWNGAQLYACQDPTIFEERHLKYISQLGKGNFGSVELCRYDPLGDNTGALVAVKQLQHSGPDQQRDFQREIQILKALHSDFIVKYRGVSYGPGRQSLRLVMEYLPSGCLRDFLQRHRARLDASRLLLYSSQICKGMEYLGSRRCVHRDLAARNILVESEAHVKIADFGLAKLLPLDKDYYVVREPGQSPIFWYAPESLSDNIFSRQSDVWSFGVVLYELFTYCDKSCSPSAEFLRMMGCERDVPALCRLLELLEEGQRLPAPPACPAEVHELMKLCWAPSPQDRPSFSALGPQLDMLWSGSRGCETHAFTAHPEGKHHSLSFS
# T2 sequence (Q07912 whole entry): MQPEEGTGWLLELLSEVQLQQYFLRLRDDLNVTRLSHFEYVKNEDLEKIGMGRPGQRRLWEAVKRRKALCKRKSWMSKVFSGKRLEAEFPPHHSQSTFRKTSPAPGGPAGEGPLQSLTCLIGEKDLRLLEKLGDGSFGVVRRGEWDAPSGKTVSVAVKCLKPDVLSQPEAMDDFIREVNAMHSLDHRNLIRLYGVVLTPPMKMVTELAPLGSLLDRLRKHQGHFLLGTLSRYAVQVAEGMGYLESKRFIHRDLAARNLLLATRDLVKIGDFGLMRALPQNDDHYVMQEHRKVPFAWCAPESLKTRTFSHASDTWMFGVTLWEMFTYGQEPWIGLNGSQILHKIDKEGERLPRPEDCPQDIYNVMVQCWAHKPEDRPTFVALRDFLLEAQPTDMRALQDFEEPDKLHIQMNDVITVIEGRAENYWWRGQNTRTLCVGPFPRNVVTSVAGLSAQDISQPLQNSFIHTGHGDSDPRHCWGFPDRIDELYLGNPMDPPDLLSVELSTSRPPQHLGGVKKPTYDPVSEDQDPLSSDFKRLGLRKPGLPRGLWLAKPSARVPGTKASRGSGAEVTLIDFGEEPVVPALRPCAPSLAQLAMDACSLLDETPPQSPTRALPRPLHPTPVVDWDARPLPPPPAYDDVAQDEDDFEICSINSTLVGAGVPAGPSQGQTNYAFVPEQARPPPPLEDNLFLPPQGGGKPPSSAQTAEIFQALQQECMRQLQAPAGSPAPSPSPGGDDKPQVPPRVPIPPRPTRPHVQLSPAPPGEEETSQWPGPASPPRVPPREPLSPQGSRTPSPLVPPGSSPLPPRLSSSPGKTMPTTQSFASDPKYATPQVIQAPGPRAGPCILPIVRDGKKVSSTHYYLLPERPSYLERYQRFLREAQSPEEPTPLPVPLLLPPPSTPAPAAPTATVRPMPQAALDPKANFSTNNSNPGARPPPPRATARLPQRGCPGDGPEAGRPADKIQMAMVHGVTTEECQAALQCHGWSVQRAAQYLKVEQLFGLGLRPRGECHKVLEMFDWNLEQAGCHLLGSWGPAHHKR
# Chain of FAK (Q05397 whole entry): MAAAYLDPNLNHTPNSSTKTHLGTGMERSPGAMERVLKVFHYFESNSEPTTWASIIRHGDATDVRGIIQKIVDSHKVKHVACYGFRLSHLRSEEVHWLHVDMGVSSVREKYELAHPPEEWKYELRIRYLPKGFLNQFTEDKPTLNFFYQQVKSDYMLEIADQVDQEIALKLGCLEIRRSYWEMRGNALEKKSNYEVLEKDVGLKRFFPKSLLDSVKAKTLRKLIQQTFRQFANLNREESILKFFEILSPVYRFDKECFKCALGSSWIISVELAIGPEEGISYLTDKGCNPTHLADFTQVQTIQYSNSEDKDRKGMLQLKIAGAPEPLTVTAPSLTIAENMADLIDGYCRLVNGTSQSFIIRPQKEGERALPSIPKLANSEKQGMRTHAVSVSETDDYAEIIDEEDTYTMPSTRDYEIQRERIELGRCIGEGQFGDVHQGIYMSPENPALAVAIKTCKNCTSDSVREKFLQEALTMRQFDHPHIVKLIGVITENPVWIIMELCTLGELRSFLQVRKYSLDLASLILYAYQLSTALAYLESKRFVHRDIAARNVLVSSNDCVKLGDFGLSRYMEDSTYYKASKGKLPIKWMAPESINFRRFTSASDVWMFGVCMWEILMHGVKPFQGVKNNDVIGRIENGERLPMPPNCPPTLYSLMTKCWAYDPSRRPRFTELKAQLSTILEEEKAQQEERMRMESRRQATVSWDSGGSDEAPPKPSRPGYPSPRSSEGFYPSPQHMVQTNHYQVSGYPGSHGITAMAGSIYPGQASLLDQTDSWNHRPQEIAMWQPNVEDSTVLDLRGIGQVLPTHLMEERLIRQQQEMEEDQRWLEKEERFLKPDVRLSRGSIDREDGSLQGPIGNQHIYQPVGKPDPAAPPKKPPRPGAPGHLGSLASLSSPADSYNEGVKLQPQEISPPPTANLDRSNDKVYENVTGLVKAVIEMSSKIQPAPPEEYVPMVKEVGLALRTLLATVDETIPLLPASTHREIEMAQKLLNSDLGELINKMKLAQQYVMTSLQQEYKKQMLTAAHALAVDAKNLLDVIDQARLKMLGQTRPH
# T6 sequence (Q9H093 whole entry): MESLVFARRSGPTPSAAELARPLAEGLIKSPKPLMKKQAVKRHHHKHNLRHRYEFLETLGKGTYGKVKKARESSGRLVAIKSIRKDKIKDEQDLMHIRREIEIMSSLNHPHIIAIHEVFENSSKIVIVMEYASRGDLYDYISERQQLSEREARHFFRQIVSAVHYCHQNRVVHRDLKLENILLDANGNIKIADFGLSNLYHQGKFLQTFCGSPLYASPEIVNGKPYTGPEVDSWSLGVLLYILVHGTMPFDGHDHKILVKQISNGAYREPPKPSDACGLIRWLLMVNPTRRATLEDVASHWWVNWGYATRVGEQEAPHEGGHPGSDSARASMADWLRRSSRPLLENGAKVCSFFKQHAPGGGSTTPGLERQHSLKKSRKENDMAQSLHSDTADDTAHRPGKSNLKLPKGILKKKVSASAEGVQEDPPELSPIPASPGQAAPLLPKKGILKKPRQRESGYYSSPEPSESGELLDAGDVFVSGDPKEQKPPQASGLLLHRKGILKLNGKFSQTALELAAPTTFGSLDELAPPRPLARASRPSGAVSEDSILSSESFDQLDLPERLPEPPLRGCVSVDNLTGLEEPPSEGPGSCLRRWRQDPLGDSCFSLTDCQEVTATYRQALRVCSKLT
# Chain of ARK5 (O60285 whole entry): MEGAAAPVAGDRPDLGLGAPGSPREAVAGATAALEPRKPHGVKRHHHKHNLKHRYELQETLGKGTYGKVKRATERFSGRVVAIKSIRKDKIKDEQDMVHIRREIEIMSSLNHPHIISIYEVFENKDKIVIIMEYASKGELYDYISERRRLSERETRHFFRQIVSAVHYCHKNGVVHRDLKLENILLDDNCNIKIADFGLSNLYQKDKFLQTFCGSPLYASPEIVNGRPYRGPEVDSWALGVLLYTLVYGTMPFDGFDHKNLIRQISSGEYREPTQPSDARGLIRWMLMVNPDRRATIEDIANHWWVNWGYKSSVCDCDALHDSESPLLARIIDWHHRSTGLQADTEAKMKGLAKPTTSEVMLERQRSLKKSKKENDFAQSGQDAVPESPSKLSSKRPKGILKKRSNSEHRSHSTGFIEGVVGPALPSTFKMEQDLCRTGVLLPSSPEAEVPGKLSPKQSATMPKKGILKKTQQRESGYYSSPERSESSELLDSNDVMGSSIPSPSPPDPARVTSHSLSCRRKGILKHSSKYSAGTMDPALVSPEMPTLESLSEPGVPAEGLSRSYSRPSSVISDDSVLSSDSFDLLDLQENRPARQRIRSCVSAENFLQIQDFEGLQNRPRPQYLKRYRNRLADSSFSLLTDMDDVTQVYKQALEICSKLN
smiles,measurement,setting,value
"C[C@H]1CNC(=O)c2cnn3ccc(nc23)N[C@H](C)c2cc(F)ccc2O1 [Compound 1, (7S,13R)-11-fluoro-7,13-dimethyl-6,7,13,14-tetrahydro-1,15-ethenopyrazolo[4,3-f][1,4,8,10]benzoxatriazacyclotridecin-4(5H)-one]",IC50,TYK2,21.6 nM
same,Kd,FAK,27 nM
same,Kd,ARK5,3.7 nM
same,IC50,TNK2,24.1 nM
same,IC50,IGFR,111 nM
same,IC50,JAK1,19 nM
same,IC50,FYN,1.05 nM
same,IC50,SNARK,13 nM
same,IC50,JAK3,50 nM
same,IC50,[1],0.6 nM
same,mice exhibiting tumor regression,[2]; 15 mg/kg/BID orally,2 of 8
same,mice exhibiting tumor regression,[2]; 50 mg/kg/BID orally,8 of 8
same,tumor regression (REG),[2]; 50 mg/kg/BID orally,41%
same,IC50,STAT5,~158 nM
same,IC50,YES,2.15 nM
